Reference: patent publication US20240131198A1, “RATIOMETRIC BIOSENSOR TATTOOS AND USE THEREOF FOR REAL TIME MEASUREMENTS” (priority 2022, published 2024)

What was measured:
[1] = test system: rat skin; test: Delivery of Cy5-PEG/Cy3-PEG microneedle tattoo to the shaved skin of living rats; type: in vivo; conditions: MN delivery, fluorescence stereomicroscopy several hours after application
[2] = 50 μM/500 μM of FeSO4:H2O2, 10 μM dye
[3] = test system: UV-induced dermal ROS; test: In vivo sensing of UV irradiation-induced ROS in rat skin; parameters: species or system Sprague-Dawley rats; conditions: 30 minutes after application, t=0 h and t=24 h after irradiation
Description: Male Sprague-Dawley rats (Charles River, St-Constant, QC) with weight ranging from 300-350 g at delivery were used for this study. Following arrival in the animal facility, all animals were subjected to a general health evaluation. An acclimation period of 5 days was allowed before the beginning of the study. Each animal cage was equipped with a manual water distribution system. A standard certified commercial rodent diet was provided ad libitum. Tap water was provided ad libitum at all times. Rats dorsal skin was shaved and depilated under isoflurane-induced anesthesia using an electric razor and depilating cream (Nair, Church & Dwight) the day before experimentation. Rats were extensively rinsed to prevent burning with residual depilating agent. For irradiation, animals were anesthetized with isoflurane and placed under the UV irradiating lamp (Daavlin 24″ research unit×305/350-6/6) equipped with a UV power meter to manually validate constant dosimetry. Irradiated animal received 700 mJ·cm^2 of UVB. […] Three MN arrays were applied at the same time on different sites of the dorsal skin. MNs were removed, and the application sites were scanned for fluorescence using the portable fluorescence reader. On the first day, sites were read after 0.5, 1, 4, and 6 h. On the second day, new MNs were applied and read immediately or 6 h after application. […]

[4] = test system: inflammatory filaggrin-deficient (FLG-) skin model; test: H-Cy5-PEG/Cy7.5-PEG microneedle tattoo in human-based atopic skin model; type: cell-based; conditions: human-based atopic model of skin inflammation, 20 minutes
Description: To provide the proof of concept for our approach and to validate the potential use of a medical tattoo in a biological system, the sensing properties of the generated MNs were tested in human-based inflammatory skin model that closely emulates characteristics of atopic skin in vitro^[76] and has been previously verified for the presence of disease-relevant ROS.^[77] This model has been extensively characterized in previous work showing excellent correlation with atopic skin in vivo.^[76,78,79] The skin model is based on a filaggrin knockdown, as filaggrin mutations are a major pre-disposing factor for AD.^[80] […] Cy7.5 was selected based on its structural similarity to Cy5 and other cyanines, displaying similar physicochemical properties and allowing PEGylation in the same manner as Cy5, as well as its NIR fluorescence (λex=788 nm; λem=808 nm), optimal for visibility in the skin. […]
The MNs rapidly dissolved within 2 minutes, after which the backing layer was carefully removed. The fluorescence intensities of the sensor and reference dye in the skin models were determined using an IVIS Lumina II imaging system (Perkin Elmer) at 0, 5, 15 and 20 mins after MN application. […] The fluorescence signal for each model was assessed by selecting a region of interest (ROI) and by the signal-to-noise ratio (Cy5 ROI/Cy7.5 ROI).

[5] = Reoxidation of H-Cy5-PEG/Cy7.5-PEG microneedle tattoo in excised porcine skin; conditions: H2O2 (100 mM) or Fenton's reagent (40 μM/400 μM), portable fluorescence reader
Description: Microneedle tattoos containing both the sensor and reference dye were delivered ex vivo to excised porcine skin that had been treated with either distilled water (control), or a source of ROS—either H2O2 (100 mM) or Fenton's reagent (40 μM/400 μM).
Excised porcine skin was obtained and shaved using a manual blade razor to remove any hair. The skin was permeabilized using a 1.0 mm dermaroller (DermaRollerSystem.com, Markham, ON), 200 μL of either distilled H2O, 100 mM H2O2, or Fenton's Reagent (40 μM FeSO4/400 μM H2O2) was added and allowed to soak into the skin for 20 minutes, after which any excess was removed with a paper towel. […] After removal of the MN backing layer, the fluorescence of the application site was measured with the portable fluorescence reader, using both the Cy5 and Cy7.5 filters (Cy5: λex=638 nm, λem=668-702 nm; Cy7.5: λex=782 nm, λem=810-840 nm). For each MN application, 3 measurements were recorded at each wavelength.

Molecule | diffusion in the skin [1] | signal retained when exposed to ROS [2] [%] | Cy7.5-PEG fluorescence intensity after application in vivo [3] | Cy7.5-PEG fluorescence intensity over time [4] | fluorescence at Cy7.5-PEG wavelengths in the presence of ROS [5]
CN1/C(=C/C=C/C2=[N+](CCCCCC(=O)O)c3ccccc3C2(C)C)C(C)(C)c2ccccc21 [Cy3, Cyanine-3] | minimal diffusion | 40 | – | – | –
CN1/C(=C/C=C/C=C/C2=[N+](CCCCCC(=O)O)c3ccccc3C2(C)C)C(C)(C)c2ccccc21 [Cy5, Cyanine-5] | minimal diffusion | – | – | – | –
Cyanine-7.5-PEG [Cy7.5-PEG] | – | – | no significant decrease | did not decrease | unaffected
